Data published in US10919896B2, “Preparation and uses of pyrimidinone derivatives” (Cancer Research Technology Limited, priority 2016, dated 2021).
Counter-ions that a name gives are not always drawn.

Legend:
[1] = tested on: Cdc7 (pS40MCM2 levels in HCT116 cells); assay: Cdc7 Cell Pharmacodynamics Assay Method 2B: pS40MCM2 levels in HCT116 cells, 18 hours; assay type: cell-based; conditions: Homo sapiens, HCT-116, read-out: Biomarker Method 2B (pEC50) (converted)
Procedure, shortened: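 HCT116 cells seeded at 20,000/well, settled overnight, then treated with compound (1:400 dilution from compound plate) for 6 h (Method 2A) or 18 h (Method 2B) at 37° C. Lysates captured on total-MCM2 antibody plates; pS40 MCM2 detected with rabbit anti-pMCM2 Ser40, HRP secondary and chemiluminescent substrate.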

Cdc7/ASK = Cdc7/ASK (Homo sapiens, UniProt O00311); assay: Cdc7 Biochemical Assay Method 4: off-chip mobility shift assay (Carna Biosciences); design: purchased Carna Biosciences; host or cells: baculovirus expression system; conditions: off-chip MSA, MCM2 peptide, 5 hours; read-out: Biochemical Method 4 (pIC50) (converted)
Experimental: This protocol describes a method for assaying Cdc7/ASK for activity. The assay is an off-chip mobility shift assay (MSA) run at Carna Biosciences.
1. Preparation of Test Compound Solution.
The test compound was dissolved in and diluted with dimethylsulfoxide (DMSO) to achieve 100-fold higher concentration which was specified by the sponsor. Then the solution was further 25-fold diluted with assay buffer to make the final test compound solution. Reference compounds for assay control were prepared similarly.
Cdc7/ASK: Full-length human Cdc7 [1-574(end) amino acids of accession number NP_003494.1] was co-expressed as N-terminal GST-fusion protein (92 kDa) with Dbf4(ASK) [1-674(end) amino acids of accession number NP_006707.1] using baculovirus expression system. GST-Cdc7 was purified by using glutathione sepharose chromatography.
3. Assay Reagents and Procedures
Off-chip Mobility Shift Assay (MSA)
1) The […] of ×2 kinase solution were prepared with assay buffer (20 mM HEPES, 0.01% Triton X-100, 1 mM DTT, pH 7.5) and mixed and incubated in a well of polypropylene 384 well microplate for 5 hours at room temperature. 2) […] of Termination Buffer (QuickScout Screening Assist MSA; Carna Biosciences) was added to the well. 3) The reaction mixture was applied to LabChip system (Perkin Elmer), and the product and substrate peptide peaks were separated and quantitated. 4) The kinase reaction was evaluated by the product ratio calculated from peak heights of product (P) and substrate (S) peptides (P/(P+S)).
Reaction time is 5 hours.
The readout value of reaction control (complete reaction mixture) was set as a 0% inhibition, and the readout value of background (Enzyme(−)) was set as a 100% inhibition, then the percent inhibition of each test solution was calculated.
IC50 value was calculated from concentration vs. % Inhibition curves by fitting to a four parameter logistic curve.

Cdc7/ASK, sequence (O00311 whole entry): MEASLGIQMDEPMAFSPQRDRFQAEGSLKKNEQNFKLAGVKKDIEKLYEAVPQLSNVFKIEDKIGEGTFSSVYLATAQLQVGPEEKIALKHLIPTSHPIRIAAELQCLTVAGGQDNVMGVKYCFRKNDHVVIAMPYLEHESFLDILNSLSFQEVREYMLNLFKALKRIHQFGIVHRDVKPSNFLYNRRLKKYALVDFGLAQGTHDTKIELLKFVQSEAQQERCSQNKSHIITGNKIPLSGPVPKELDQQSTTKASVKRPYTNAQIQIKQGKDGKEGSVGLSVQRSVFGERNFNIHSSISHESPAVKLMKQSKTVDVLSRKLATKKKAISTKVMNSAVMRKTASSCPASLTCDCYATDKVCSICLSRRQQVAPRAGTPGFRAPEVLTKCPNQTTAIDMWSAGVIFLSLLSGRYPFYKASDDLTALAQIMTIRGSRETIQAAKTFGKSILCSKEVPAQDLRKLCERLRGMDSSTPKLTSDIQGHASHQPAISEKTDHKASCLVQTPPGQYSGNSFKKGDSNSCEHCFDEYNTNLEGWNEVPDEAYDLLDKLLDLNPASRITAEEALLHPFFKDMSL
Cdc7/ASK, sequence (Q9UBU7 whole entry partner): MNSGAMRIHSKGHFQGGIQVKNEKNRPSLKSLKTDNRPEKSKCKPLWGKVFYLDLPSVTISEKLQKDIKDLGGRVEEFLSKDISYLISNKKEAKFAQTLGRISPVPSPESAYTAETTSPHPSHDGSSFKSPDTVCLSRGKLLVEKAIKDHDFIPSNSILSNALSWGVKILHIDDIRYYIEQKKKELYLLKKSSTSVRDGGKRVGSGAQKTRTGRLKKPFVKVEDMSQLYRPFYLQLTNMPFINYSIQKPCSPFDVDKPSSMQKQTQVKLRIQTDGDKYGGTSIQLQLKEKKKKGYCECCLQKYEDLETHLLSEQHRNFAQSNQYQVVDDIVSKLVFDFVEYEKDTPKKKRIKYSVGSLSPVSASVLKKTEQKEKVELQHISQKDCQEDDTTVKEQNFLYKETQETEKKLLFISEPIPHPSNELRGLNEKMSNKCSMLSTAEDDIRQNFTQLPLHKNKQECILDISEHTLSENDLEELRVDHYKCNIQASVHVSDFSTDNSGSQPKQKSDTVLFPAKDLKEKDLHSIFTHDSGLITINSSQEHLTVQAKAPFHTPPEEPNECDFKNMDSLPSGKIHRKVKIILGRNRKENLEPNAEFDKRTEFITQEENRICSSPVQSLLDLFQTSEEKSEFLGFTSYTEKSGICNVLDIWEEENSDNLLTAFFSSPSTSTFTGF

EC50 [1] | IC50 (Cdc7/ASK) | Compound
13.5 nM | – | O=c1[nH]c(-c2ccnc(F)c2)nc(N2CCCC(F)(F)C2)c1Cl [Compound 90, 5-chloro-4-(3,3-difluoro-1-piperidyl)-2-(2-fluoro-4-pyridyl)-1H-pyrimidin-6-one]
7.59 nM | 3.72 nM | O=c1[nH]c(-c2ccnc(F)c2)nc(N2CCNCC(F)(F)C2)c1Cl [Compound 312, 5-chloro-4-(6,6-difluoro-1,4-diazepan-1-yl)-2-(2-fluoro-4-pyridyl)-1H-pyrimidin-6-one hydrochloride]
5.62 nM | 3.09 nM | C[C@@H]1CNCCN1c1nc(-c2ccnc(F)c2)[nH]c(=O)c1Cl [Compound 323]
